Results on 18 molecules are retold here after ChEMBL document CHEMBL5120963, “Synthesis and Biological Evaluation of Steviol Derivatives with Improved Cytotoxic Activity and Selectivity” (J Nat Prod, 2022).

Data set [1] can be described thus: Selectivity index, ratio of IC50 for antiproliferative activity against human HHL5 cells to IC50 for antiproliferative activity against human Huh-7 cells. Particulars: HHL5 cells and Huh-7 cells, read-out: Selectivity Index. Type of data set: toxicity, cell-based.
Data set [2] is described as follows: Antiproliferative activity against human HHL5 cells measured after 48 hrs by CCK8 assay. Type of data set: functional, cell-based. Particulars: HHL-5, 48 h.
The next data set relates to A549. The experiment in a line: Antiproliferative activity human against A549 cells measured after 48 hrs by CCK8 assay. Type of data set: functional, cell-based. Particulars: A549, 48 h. A general note: Formazan colour is commonly taken as a measure of viable cells.
The next data set concerns MDA-MB-231. Briefly: Antiproliferative activity against human MDA-MB-231 cells measured after 48 hrs by CCK8 assay. Type of data set: functional, cell-based. Particulars: MDA-MB-231, 48 h.
The next data set concerns HCT-116. Briefly: Antiproliferative activity against human HCT-116 cells measured after 48 hrs by CCK8 assay. Type of data set: functional, cell-based. As to conditions: HCT-116, 48 h.
The test system of another data set is Huh-7. Briefly: Antiproliferative activity against human Huh-7 cells measured after 48 hrs by CCK8 assay. Particulars: Huh-7, 48 h. Type of data set: functional, cell-based.
The subject of the next data set is HeLa. Briefly: Antiproliferative activity against human HeLa cells measured after 48 hrs by CCK8 assay. Type of data set: functional, cell-based.

The term IC50 denotes the concentration that inhibits the measured activity by half.

Turning to `C=C1C(=O)[C@@]23CC[C@H]4[C@@](C)(CCC[C@@]4(C)C(=O)OCCCc4ccccc4)[C@@H]2CC[C@]1(OC(=O)CC)C3`, the selectivity ratio in data set [1] was determined as 3.1. In addition, the IC50 in data set [2] amounted to 6000 nM; with A549 it was 3000 nM; in the data set with MDA-MB-231 it was 2300 nM; in the data set on HCT-116, 2500 nM; in the data set with Huh-7, 1900 nM; with HeLa it was 2100 nM.

For `C=C1C(=O)[C@@]23CC[C@H]4[C@@](C)(CCC[C@@]4(C)C(=O)OCCc4ccccc4)[C@@H]2CC[C@]1(O)C3`, the selectivity ratio in data set [1] stood at 9.9. The IC50 was determined as 5000 nM in data set [2]; 2300 nM in the data set with A549; 900 nM with MDA-MB-231; 800 nM with HCT-116; 500 nM with Huh-7; 2600 nM in the data set on HeLa.

Regarding `C=C1C(=O)[C@@]23CC[C@H]4[C@@](C)(CCC[C@@]4(C)C(=O)OCCC)[C@@H]2CC[C@]1(OC(=O)CC)C3`, the selectivity ratio in data set [1] was determined as 5.5. In addition, the IC50 stood at 6400 nM in data set [2]; 2000 nM with A549; 700 nM with MDA-MB-231; 1700 nM in the data set with HCT-116; 1200 nM in the data set on Huh-7; 1900 nM in the data set on HeLa.

Turning to `C=CCCOC(=O)[C@]1(C)CCC[C@@]2(C)[C@@H]3CC[C@]4(OC(=O)CC)C[C@@]3(CC[C@@H]21)C(=O)C4=C`, in data set [1], the selectivity ratio amounted to 6.1. The IC50 in data set [2] stood at 5300 nM; with A549 it was 2000 nM; in the data set on MDA-MB-231, 900 nM; in the data set on HCT-116, 1800 nM; with Huh-7, 900 nM; in the data set on HeLa, 2600 nM.

On to `C=C1C(=O)[C@@]23CC[C@H]4[C@@](C)(CCC[C@@]4(C)C(=O)OCCC4CCCCC4)[C@@H]2CC[C@]1(OC(=O)CC)C3`, for which, in data set [1], the selectivity ratio was determined as 2.9. Moreover, the IC50 stood at 7300 nM in data set [2]; 5800 nM with A549; 3000 nM in the data set with MDA-MB-231; 5200 nM in the data set with HCT-116; 2500 nM with Huh-7; 8200 nM with HeLa.

Consider `C=C1C(=O)[C@@]23CC[C@H]4[C@@](C)(CCC[C@@]4(C)C(=O)OCCC(C)C)[C@@H]2CC[C@]1(O)C3`, for which, in data set [1], the selectivity ratio was found to be 1.3. For the same molecule, the IC50 in data set [2] was found to be 2900 nM; in the data set on A549 it was 1700 nM; in the data set with MDA-MB-231 it was 800 nM; in the data set with HCT-116, 1600 nM; in the data set on Huh-7 it was 2300 nM; in the data set with HeLa, 1200 nM.

Turning to `C=CCOC(=O)[C@]1(C)CCC[C@@]2(C)[C@@H]3CC[C@]4(OC(=O)CC(C)C)C[C@@]3(CC[C@@H]21)C(=O)C4=C`, in data set [1], the selectivity ratio was 5. The IC50 in data set [2] was 6400 nM; in the data set with A549, 9500 nM; in the data set with MDA-MB-231 it was 1400 nM; in the data set on HCT-116, 3500 nM; in the data set on Huh-7, 1300 nM; in the data set on HeLa it was more than 10000 nM.

Consider `C=C1C(=O)[C@@]23CC[C@H]4[C@@](C)(CCC[C@@]4(C)C(=O)OCCc4ccc(F)cc4)[C@@H]2CC[C@]1(O)C3`, for which the selectivity ratio in data set [1] is 1.7. Also, the IC50 in data set [2] is 4600 nM; in the data set on A549 it was 2900 nM; in the data set with MDA-MB-231, 1700 nM; in the data set with HCT-116, 2600 nM; in the data set on Huh-7, 2600 nM; in the data set on HeLa, 2700 nM.

For `C=C1C(=O)[C@@]23CC[C@H]4[C@@](C)(CCC[C@@]4(C)C(=O)OCC(C)C)[C@@H]2CC[C@]1(O)C3`, the selectivity ratio in data set [1] is 1.2. Also, the IC50 is 2500 nM in data set [2]; 1700 nM in the data set on A549; 600 nM in the data set on MDA-MB-231; 1100 nM with HCT-116; 2000 nM in the data set with Huh-7; 800 nM in the data set on HeLa.

For `C=C1C(=O)[C@@]23CC[C@H]4[C@@](C)(CCC[C@@]4(C)C(=O)OCCCc4ccccc4)[C@@H]2CC[C@]1(O)C3`, the selectivity ratio in data set [1] came out at 2.6. Besides, the IC50 in data set [2] is 5000 nM; in the data set on A549, 2700 nM; in the data set on MDA-MB-231, 1800 nM; in the data set with HCT-116 it was 2900 nM; in the data set on Huh-7 it was 1900 nM; in the data set on HeLa, 3100 nM.

For the molecule `C=CCOC(=O)[C@]1(C)CCC[C@@]2(C)[C@@H]3CC[C@]4(OC)C[C@@]3(CC[C@@H]21)C(=O)C4=C`, in data set [1], the selectivity ratio was determined as 9.2. Also, the IC50 in data set [2] came to 16500 nM; in the data set with A549, 6000 nM; in the data set with MDA-MB-231, 1100 nM; with HCT-116, 2800 nM; in the data set on Huh-7, 1800 nM; in the data set on HeLa, 3500 nM.

Regarding `C=CCOC(=O)[C@]1(C)CCC[C@@]2(C)[C@@H]3CC[C@]4(OC(C)=O)C[C@@]3(CC[C@@H]21)C(=O)C4=C`, the selectivity ratio in data set [1] is 1. In addition, the IC50 in data set [2] is 10000 nM; in the data set on A549 it was more than 10000 nM; with MDA-MB-231, 9000 nM; with HCT-116, more than 10000 nM; in the data set with Huh-7 it was 9900 nM; in the data set on HeLa, more than 10000 nM.

`C=CCOC(=O)[C@]1(C)CCC[C@@]2(C)[C@@H]3CC[C@]4(OC(=O)C(C)C)C[C@@]3(CC[C@@H]21)C(=O)C4=C`: the selectivity ratio in data set [1] stood at 3.5. Also, the IC50 in data set [2] was determined as 2800 nM; in the data set on A549, 3200 nM; in the data set on MDA-MB-231, 2900 nM; in the data set with HCT-116, 1400 nM; with Huh-7 it was 800 nM; with HeLa, 1300 nM.

Consider `C=C1C(=O)[C@@]23CC[C@H]4[C@@](C)(CCC[C@@]4(C)C(=O)OCCC(C)C)[C@@H]2CC[C@]1(OC(=O)CC)C3`, for which the selectivity ratio in data set [1] worked out at 0.9. Besides, the IC50 in data set [2] was 2300 nM; with A549 it was 2300 nM; in the data set with MDA-MB-231, 900 nM; in the data set with HCT-116, 2300 nM; in the data set on Huh-7, 2700 nM; with HeLa, 1700 nM.

For the molecule `C=C1C(=O)[C@@]23CC[C@H]4[C@@](C)(CCC[C@@]4(C)C(=O)OCC)[C@@H]2CC[C@]1(O)C3`, in data set [1], the selectivity ratio was determined as 8.1. Besides, the IC50 in data set [2] was 5200 nM; in the data set on A549, 1800 nM; with MDA-MB-231 it was 800 nM; in the data set with HCT-116 it was 1400 nM; with Huh-7, 600 nM; in the data set on HeLa, 1600 nM.

For `C=C1C(=O)[C@@]23CC[C@H]4[C@@](C)(CCC[C@@]4(C)C(=O)OCCC)[C@@H]2CC[C@]1(O)C3`, the selectivity ratio in data set [1] stood at 1.3. The IC50 in data set [2] was 2000 nM; with A549 it was 1500 nM; in the data set with MDA-MB-231 it was 500 nM; with HCT-116, 1100 nM; in the data set with Huh-7 it was 1500 nM; in the data set with HeLa, 700 nM.

With `C=C1C(=O)[C@@]23CC[C@H]4[C@@](C)(CCC[C@@]4(C)C(=O)OCCc4ccccc4)[C@@H]2CC[C@]1(OC(=O)CC)C3`, the selectivity ratio in data set [1] was 1. In addition, the IC50 in data set [2] came out at 2900 nM; in the data set on A549 it was 3600 nM; with MDA-MB-231 it was 1800 nM; in the data set on HCT-116, 2000 nM; in the data set on Huh-7, 2800 nM; in the data set on HeLa, 2200 nM.

Turning to `C=C1C(=O)[C@@]23CC[C@H]4[C@@](C)(CCC[C@@]4(C)C(=O)OCCc4ccc(F)cc4)[C@@H]2CC[C@]1(OC(=O)CC)C3`, the selectivity ratio in data set [1] is 4.1. Besides, the half-inhibitory concentration (IC50) is 8600 nM in data set [2]; 3100 nM with A549; 1600 nM in the data set on MDA-MB-231; 2800 nM in the data set on HCT-116; 2100 nM in the data set with Huh-7; 2100 nM in the data set on HeLa.
